# Experimental data as given in patent US11447534B2, “Peptide complex with immunodulatory and anti-inflammatory function” (NATIONAL INSTITUTE OF IMMUNOLOGY, priority 2018, dated 2022).
# What was measured:
# [1] = tested on: iNOS (inducible nitric oxide synthase); assay: iNOS Western blot and Griess nitrite assay in ConA activated macrophages; assay type: cell-based, murine; conditions: ConA induced
# Experimental: To determine the anti-inflammatory potential of A-O complex, protein level of iNOS (inducible nitric oxide synthase) in cell lysates and nitrite level in cell culture supernatants were evaluated by Western blot and Griess assay respectively. iNOS antibody used was #2982 from Cell Signaling Technology. For determination of nitrite cell culture media and Griess reagent (5% phosphoric acid containing 0.1% NEDD, 1% sulfanilamide) were mixed and incubated in dark for 10 min at room temperature. The absorbance of the violet colored product and blank (cell culture media) was measured at 540 nm. The concentration of nitrite in the sample was determined from a sodium nitrite (NaNO2) standard curve.
# [2] = tested on: macrophages; assay: Uptake of fluorescent CD36 ligands by macrophages (FACS); assay type: cell-based, murine; conditions: macrophages pre-treated half an hour, ligand 1 hour
# Experimental: Briefly, 50 μl of 100 μM Abeta was pH adjusted to pH 9 with 5 microlitre of 1 M NaHCO3, followed by addition of 4 microlitre of the H2O solubilized reactive dye. Incubation at room temperature (˜22° C.) was performed for 15 min followed by immediate addition of 55 microlitre of the labeling reaction mixture onto a spin column packed with a 425 microlitre slurry of Biogel P-6 resin for removal of unincorporated dye. The resulting eluent (pH 7.4) was stored for up to 2 days at 4° C. or used immediately for cellular uptake experiments. Both ligands were exposed after pre-treatment of cells with A-O complex for half an hour. The ligands were exposed to cell cultures for 1 hour after which cells were either quenched with trypan blue (0.2%) or given acid wash.
# [3] = tested on: RAW264.7 macrophages; assay: Lactate dehydrogenase (LDH) assay in macrophages; assay type: cell-based, murine
# Experimental: Effect of Abeta-Glu-OC (3 ng) mixture on macrophage integrity: To determine whether the mixture produced any toxicity lactate dehydrogenase (LDH) assay was performed. Briefly, the cells were incubated with the mixture under serum starved conditions for 1 hour followed by LDH assay. LDH was assayed using In vitro toxicology assay kit from Sigma-Aldrich, St. Louis, Mo., USA (cat. no.-TOX7) as per the manufacturer's directions. LDH assay substrate solution, LDH assay dye solution and 1×LDH assay cofactor were provided with the kit. […] To this LDH assay mixture was added and incubated at room temperature in the dark for 20-30 min. The reaction was terminated by the addition of 1/10 volume of 1N HCl. Absorption was taken 490 nm with the help of in a Tecan Microplate reader, Switzerland with Magellan™ software.
# [4] = tested on: carrageenan induced paw edema; assay: Carrageenan induced paw inflammation in mice; assay type: in vivo, mouse
# Experimental: The effect of A-O complex was tested under in vivo conditions. Carrageenan, an inflammation inducing agent was injected into the hind foot pad of mouse to induce acute inflammation. The edema attains peak at around 3 hours post carrageenan challenge. This is a convenient model to assess the anti-inflammatory potency of test drugs to reduce or prevent the development of swelling. The protocol followed herein is as per Morris (2003) [Morris C J, 2003, Carrageenan induced paw edema in rat and mouse. In: Winyard P. G., Willoughby D. A. (eds) Inflammation Protocols. Methods in Molecular Biology, Vol 225. Humana Press. Pp 115-121].
# Preparation of carrageenan: To prepare 0.5% of carrageenan solution, 50 mg of lamda-carrageenan ([…], Sigma Chemical Co., St. Louis, Mo., USA) was slowly added onto a small beaker containing 10 ml of normal saline. The powder was allowed to swell for some time and then slightly heated (not boiled) to dissolve the carrageenan. The solution was stirred during the heating. Once dissolved, the solution was cooled and aliquoted and stored at 4 degree Celsius.
# Method: For experiment, the mice were acclimatized in cages under standard light and temperature settings with access to food and water ad libitum. Mice were acclimatized for 1 week in respective cages to minimize stress. At the day of experiment, mice were placed in a temporary animal restraint and 50 microlitre of carrageenan solution was administered by intraplantar injection to the right hind paw of each mouse. The left paw served as control and was administered 50 microlitre of normal saline.
# To determine the efficacy of A-O complex different concentrations of complex viz. 5, 20 and 50 microgram per 100 g body weight of mice were administered intraperitoneally 1 hour before carrageenan challenge. Ibuprofen (100 mg/kg, Sigma Chemical Co., St. Louis, Mo., USA) served as positive control for the experiment. Paw size was measured by wrapping a piece of cotton thread round the paw of each […] and recording the length of the thread, the paw circumference, by use of a metric ruler. Paws were measured immediately before and at specified time points after carrageenan injection. Inhibitory activity was calculated at 1-5 h after carrageenan injection with the following formula: % Inhibition=[(Ct−C0)control−(Ct−C0)treated]/(Ct−C0)control×100, where Ct is paw size after carrageenan injection and C0 is paw size before carrageenan injection.
substance,measurement,setting,value
"A-O complex: peptide complex of 100 μM Abeta1-42 (SEQ ID NO: 1) and 3 ng Glu-OC (SEQ ID NO: 2), incubated at 37° C. for 4 hours",iNOS protein expression,"[1]; macrophage cell lysates, Western blot",reduces the iNOS expression
same,nitrite level in cell culture supernatants,"[1]; macrophage cultures, Griess assay",reduction in the ConA induced nitrite levels
same,uptake of mutant Abeta42 (mutant Aβ),[2],facilitates the uptake
same,uptake of oxidized-lipoprotein (oxLDL),[2],facilitates the uptake
same,intracellular LDH,[3],did not show any rise in intracellular LDH
same,reduction in paw edema,"[4]; 5 microgram per 100 g body weight i.p. 1 hour before carrageenan, first value (1 hour)",25%
same,reduction in paw edema,"[4]; 5 microgram per 100 g body weight i.p., second value (3rd hour)",48%
same,reduction in paw edema,"[4]; 5 microgram per 100 g body weight i.p., third value (5th hour)",58%
same,reduction in paw edema,"[4]; 20 microgram per 100 g body weight i.p., first value (1 hour)",30%
same,reduction in paw edema,"[4]; 20 microgram per 100 g body weight i.p., second value (3rd hour)",60%
same,reduction in paw edema,"[4]; 20 microgram per 100 g body weight i.p., third value (5th hour)",65%
same,reduction in paw edema,"[4]; 50 microgram per 100 g body weight i.p., first value (1 hour)",30%
same,reduction in paw edema,"[4]; 50 microgram per 100 g body weight i.p., second value (3rd hour)",57%
same,reduction in paw edema,"[4]; 50 microgram per 100 g body weight i.p., third value (5th hour)",65%
